In data set [1] the target is T1, Recombinant human PI3Kγ (full length human PI3K p110γ) (Homo sapiens, UniProt P48736).
T1 construct: full length human PI3K p110γ fused with a His6-tag at the C-terminus; His6 (C); purchased ALEXIS BIOCHEMICALS #201-055-C010; host or cells: S. frugiperda 9 insect cells
Briefly: Kinase assay of PI3Kγ (solid-phase lipid kinase assay). The format is biochemical.

[2] abbreviates: Table 1, isozyme not given, read-out: in vitro.
[3] abbreviates: in vitro PI3K-γ inhibitory activity, class symbols, read-out: in vitro PI3K-gamma.

Molecules are shown by their SMILES. Like-named read-outs stand apart in the source and are kept apart here.

T1 sequence (P48736 whole entry, the tested form may be a part): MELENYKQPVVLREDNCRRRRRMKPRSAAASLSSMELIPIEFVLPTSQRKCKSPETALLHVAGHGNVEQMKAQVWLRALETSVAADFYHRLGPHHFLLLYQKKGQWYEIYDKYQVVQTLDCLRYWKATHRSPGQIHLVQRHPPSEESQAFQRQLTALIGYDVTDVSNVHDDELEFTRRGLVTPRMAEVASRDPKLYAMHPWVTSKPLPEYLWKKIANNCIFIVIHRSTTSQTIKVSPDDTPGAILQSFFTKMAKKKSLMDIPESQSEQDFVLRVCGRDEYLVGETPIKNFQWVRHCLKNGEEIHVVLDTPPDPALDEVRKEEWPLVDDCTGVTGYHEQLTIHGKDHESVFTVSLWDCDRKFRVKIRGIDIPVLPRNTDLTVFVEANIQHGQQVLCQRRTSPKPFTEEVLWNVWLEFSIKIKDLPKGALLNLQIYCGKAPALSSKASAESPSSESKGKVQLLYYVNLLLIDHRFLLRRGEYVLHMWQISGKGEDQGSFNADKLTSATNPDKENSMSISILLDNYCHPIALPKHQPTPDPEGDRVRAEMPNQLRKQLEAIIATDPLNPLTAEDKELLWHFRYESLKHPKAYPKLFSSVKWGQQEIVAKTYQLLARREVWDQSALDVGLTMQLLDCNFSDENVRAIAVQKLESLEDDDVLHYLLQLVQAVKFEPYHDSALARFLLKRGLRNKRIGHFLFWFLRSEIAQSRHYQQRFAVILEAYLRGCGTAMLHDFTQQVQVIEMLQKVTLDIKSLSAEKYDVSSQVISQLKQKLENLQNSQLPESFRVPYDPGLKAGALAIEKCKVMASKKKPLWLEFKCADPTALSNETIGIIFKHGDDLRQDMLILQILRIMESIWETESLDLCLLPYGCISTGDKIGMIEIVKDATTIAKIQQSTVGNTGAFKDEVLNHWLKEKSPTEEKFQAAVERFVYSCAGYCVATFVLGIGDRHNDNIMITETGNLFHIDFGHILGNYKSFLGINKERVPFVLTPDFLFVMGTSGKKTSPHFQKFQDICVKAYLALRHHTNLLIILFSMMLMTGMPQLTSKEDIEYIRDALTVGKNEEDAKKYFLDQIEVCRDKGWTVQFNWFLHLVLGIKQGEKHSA

With `O/C(=C\C1=Nc2ccc(Cl)cc2C2=NCCN12)c1cccnc1` [Example 1-189], the melting point was 260 °C. Moreover, in data set [1] (setting [2]), the IC50 lay in the range of 500 to 2000 nM.
For the compound `O/C(=C\C1=Nc2cc(Cl)ccc2C2=NCCN12)c1ccccc1` [Example 1-190], the melting point was in the range of 186 to 188 °C. The IC50 in data set [1] (setting [2]) was 500 to 2000 nM.
For `O=[N+]([O-])c1ccc2c(c1)C1=NCCN1C(/C=C(\O)c1ccccc1)=N2` [Example 1-191], in that order: 259 to 262 °C and above 2000 nM.
Taken in the same sequence, the figures for `O=[N+]([O-])c1ccc2c(c1)C1=NCCN1C(/C=C(\O)c1cccnc1)=N2` [Example 1-192] were 306 °C and 500 to 2000 nM.
With `CCC(C(=O)c1ccccc1)C1=Nc2ccccc2C2=NCCN21` (stereo not drawn) [Example 1-193], the melting point lay in the range of 156 to 160 °C. Besides, the IC50 in data set [1] (setting [2]) was above 2000 nM.
Turning to `COc1c(OCC2CCCCO2)ccc2c1N=C(/C=C(\O)c1cccnc1)N1CCN=C21` (stereo not drawn) [Example 1-194], the melting point was 233 to 234 °C. In addition, in data set [1] (setting [2]), the IC50 was below 100 nM.
Compound `COc1c(OCC#N)ccc2c1N=C(/C=C(\O)c1cccnc1)N1CCN=C21` [Example 1-195] yielded a melting point of 284 to 285 °C. Besides, the IC50 in data set [1] (setting [2]) is below 100 nM.
Take `COc1c(OCc2nn[nH]n2)ccc2c1N=C(/C=C(\O)c1cccnc1)N1CCN=C21` [Example 1-196]: the melting point was 229 to 231 °C. The IC50 in data set [1] (setting [2]) was below 100 nM.
Compound `COc1c(OCCCC(=O)N2CCOCC2)ccc2c1N=C(/C=C(\O)c1cccnc1)N1CCN=C21.Cl` [Example 1-198] registered a melting point of 215 to 216 °C. For the same compound, the IC50 in data set [1] (setting [2]) was below 100 nM.
Regarding `COC(=O)CCCOc1c(OC)ccc2c1N=C(/C=C(\O)c1cccnc1)N1CCN=C21.Cl` [Example 1-199], the melting point was 178 to 179 °C. The IC50 in data set [1] (setting [2]) is below 100 nM.
On to `COc1ccc2c(c1OCC(=O)O)N=C(/C=C(\O)c1cccnc1)N1CCN=C21.Cl` [Example 1-200], for which the melting point was 286 °C (dec.). The IC50 in data set [1] (setting [2]) was 100 to 500 nM.
Taken in the same sequence, the figures for `Cl.O=C(O)CCc1ccc2c(c1)N=C(/C=C(\O)c1cccnc1)N1CCN=C21` [Example 1-201] were 273 °C (dec.) and below 100 nM.
For `Cl.O=C(O)CCCc1ccc2c(n1)N=C(/C=C(\O)c1cccnc1)N1CCN=C21` [Example 1-202], in that order: 285 °C (dec.) and 100 to 500 nM.
For `CN(C)C(=O)NCCc1ccc2c(n1)N=C(/C=C(\O)c1cccnc1)N1CCN=C21` [Example 1-203], in that order: 228 °C and 100 to 500 nM.
In the case of `O=C(NCCc1ccc2c(n1)N=C(/C=C(\O)c1cccnc1)N1CCN=C21)N1CCOCC1` [Example 1-204], the melting point was determined as 262 °C. Moreover, the IC50 in data set [1] (setting [2]) lay within 500 to 2000 nM.
Taken in the same sequence, the figures for `O=C(NCCc1ccc2c(n1)N=C(/C=C(\O)c1cccnc1)N1CCN=C21)N1CCCCC1` [Example 1-205] were 246 °C and 100 to 500 nM.
In the case of `Cl.O=C(O)CCCCc1ccc2c(n1)N=C(/C=C(\O)c1cccnc1)N1CCN=C21` [Example 1-206], the melting point was found to be 267 °C. In addition, the IC50 in data set [1] (setting [2]) is below 100 nM.
Taken in the same sequence, the figures for `CC(=O)Nc1ccc(/C(O)=C/C2=Nc3c(CN4CCOCC4)cccc3C3=NCCN23)cn1` [Example 1-208] were 253 °C (dec.) and 100 to 500 nM.
Turning to `Cl.O/C(=C\C1=Nc2cc(N3CCCC(O)C3)ccc2C2=NCCN12)c1ccc2[nH]cnc2c1` (stereo not drawn) [Example 1-210], the melting point is above 300 °C. In data set [1] (setting [2]), the IC50 is below 100 nM.
On to `O=C(NC1=Nc2cc(N3CCOCC3)ccc2C2=NCCN12)c1cccnc1` [Example 2-7], for which the melting point was determined as 243 °C. Further, in data set [1] (setting [3]), the IC50 is 100 to 500 nM.
For `Cl.O=C(NC1=Nc2cc(N3CCOCC3)ccc2C2=NCCN12)c1cccnc1` [Example 2-8], the melting point turned out to be 283 °C. The IC50 in data set [1] (setting [3]) is below 100 nM.
The compound `CC(=O)Nc1ccc(C(=O)NC2=Nc3cc(N4CCOCC4)ccc3C3=NCCN23)cc1.Cl` [Example 2-9] showed a melting point of 249 °C. Besides, the IC50 in data set [1] (setting [3]) was in the range of 100 to 500 nM.
For `O=C(NC1=Nc2cc(N3CCOCC3)ccc2C2=NCCN12)c1ccc2[nH]cnc2c1` [Example 2-10], in that order: 250 °C (dec.) and 100 to 500 nM.
Consider `Cl.O=C(NC1=Nc2cc(N3CCOCC3)ccc2C2=NCCN12)c1ccc2[nH]cnc2c1` [Example 2-11], for which the melting point was 294 °C (dec.). Also, the IC50 in data set [1] (setting [3]) was below 100 nM.
`Cc1ncccc1C(=O)NC1=Nc2cc(N3CCOCC3)ccc2C2=NCCN12` [Example 2-12]: the melting point is 199 °C (dec.). In addition, the IC50 in data set [1] (setting [3]) is 100 to 500 nM.
With `Cc1ccc(C(=O)NC2=Nc3cc(N4CCOCC4)ccc3C3=NCCN23)cn1` [Example 2-13], the melting point was found to be 209 °C. Besides, the IC50 in data set [1] (setting [3]) is below 100 nM.
With `Cc1nc(C)c(C(=O)NC2=Nc3cc(N4CCOCC4)ccc3C3=NCCN23)s1` [Example 2-16], the melting point was 233 °C (dec.). For the same compound, the IC50 in data set [1] (setting [3]) lay within 100 to 500 nM.
Taken in the same sequence, the figures for `Cc1nc(C)c(C(=O)NC2=Nc3cc(N4CCOCC4)ccc3C3=NCCN23)s1.Cl` [Example 2-17] were 255 °C (dec.) and below 100 nM.
`CCn1nc(C)cc1C(=O)NC1=Nc2cc(N3CCOCC3)ccc2C2=NCCN12` [Example 2-18] displayed a melting point of 232 °C. Also, the IC50 in data set [1] (setting [3]) was 100 to 500 nM.
With `COc1ccc2c(c1)N=C(NC(=O)c1cccnc1)N1CCN=C21` [Example 2-20], the melting point was 281 °C (dec.). Further, in data set [1] (setting [3]), the IC50 lay in the range of 100 to 500 nM.
With `COc1ccc2c(c1)N=C(NC(=O)c1ccc(NC(C)=O)nc1)N1CCN=C21.Cl` [Example 2-22], the melting point is 198 to 205 °C (dec.). The IC50 in data set [1] (setting [3]) lay in the range of 100 to 500 nM.
For `COc1ccc2c(c1)N=C(NC(=O)c1ccc(N)nc1)N1CCN=C21` [Example 2-23], in that order: 279 to 282 °C and below 100 nM.
For `COc1ccc2c(c1)N=C(NC(=O)c1ccc3[nH]cnc3c1)N1CCN=C21` [Example 2-25], in that order: 186 °C and below 100 nM.
For `Cc1ccc2c(c1)N=C(NC(=O)c1cccnc1)N1CCN=C21` [Example 2-27], in that order: 207 °C and below 100 nM.
Turning to `Cc1ccc2c(c1)N=C(NC(=O)c1ccc3[nH]cnc3c1)N1CCN=C21` [Example 2-29], the melting point came out at 190 °C. The IC50 in data set [1] (setting [3]) was below 100 nM.
The compound `Cc1ccc2c(c1)N=C(NC(=O)c1ccc3[nH]cnc3c1)N1CCN=C21.Cl` [Example 2-30] came in with a melting point of 295 °C. Besides, in data set [1] (setting [3]), the IC50 was 100 to 500 nM.
Turning to `Cc1ccc2c(c1)N=C(NC(=O)c1cccs1)N1CCN=C21` [Example 2-31], the melting point came out at 182 °C. For the same compound, in data set [1] (setting [3]), the IC50 fell in the range of 100 to 500 nM.
Taken in the same sequence, the figures for `O=C(NC1=Nc2cc(C(F)(F)F)ccc2C2=NCCN12)c1cccnc1` [Example 2-33] were 229 °C and 100 to 500 nM.
Taken in the same sequence, the figures for `Cl.O=C(NC1=Nc2cc(C(F)(F)F)ccc2C2=NCCN12)c1cccnc1` [Example 2-34] were 275 °C and below 100 nM.

The record behind these values is patent US7511041B2, “Fused azole-pyrimidine derivatives” (Bayer Pharmaceuticals Corporation, priority 2002, dated 2009).
